Tested on: T1, trypsin-like protease (trypsin) from Litopenaeus vannamei
T1 construct: native, purified from hepatopancreas (ammonium sulfate, Q-Sepharose FF); single band about 33 kDa on SDS-PAGE
Test: absorbance at […] nm, Lineweaver-Burk plot
Format: biochemical, Penaeus vannamei
Settings: 20 mM Tris-HCl pH 8.0, 37 °C, 20 min, 0.4-2.4 mM substrate; untreated control (no cold plasma)

## N=C(N)NCCCC(NC(=O)c1ccccc1)C(=O)Nc1ccc([N+](=O)[O-])cc1 (racemic) [BAPNA]
  Km: 4.16 ± 0.01 mM

— publication PMC9105110, “Changes in Biochemical Properties and Activity of Trypsin-like Protease (Litopenaeus vannamei) Treated by Atmospheric Cold Plasma (ACP)” (Foods, 2022)
